Among the data in ChEMBL document CHEMBL1142290, “Synthesis of novel oxazolidinone antimicrobial agents” (2008) are Activity and MIC values, retold here.

Assay [1] relates to Escherichia coli. The assay can be described thus: Antimicrobial activity against Escherichia coli ATCC 25922 upto 100 ug/ml after 24 hrs. Type of assay: functional, organism-based.
The subject of assay [2] is Staphylococcus aureus. The assay can be described thus: Antimicrobial activity against Staphylococcus aureus ATCC 29213 after 24 hrs. The assay is classed as functional. As to conditions: ATCC 29213, 24 h.

≈ marks a conversion by molar mass, not a printed value. Calls of active or inactive are those of the source. The rule behind the calls is not given here.

Take `CCCCc1cn(C[C@H]2CN(c3ccc4c(c3)Oc3ccccc3O4)C(=O)O2)nn1`: the result in assay [1] was inactive. The minimum inhibitory concentration (MIC) (as a rule, the least concentration at which growth counts as inhibited) in assay [2] was more than 50 µg/mL.
In the case of `O=C(O)c1cn(C[C@H]2CN(c3ccc4c(c3)Oc3ccccc3O4)C(=O)O2)nn1`, the result in assay [1] was inactive. For the same molecule, the MIC in assay [2] is more than 50 µg/mL.
For the molecule `O=C1O[C@@H](Cn2ccnn2)CN1c1ccc2c(c1)Oc1ccccc1O2`, in assay [1], the result was inactive. The molecule also yielded a minimal inhibitory concentration (MIC) in assay [2] of more than 50 µg/mL.
Turning to `CC(=O)NC[C@H]1CN(c2ccc3c(c2)Oc2ccccc2O3)C(=O)O1`, it took 2 µg/mL (≈ 5.88 µM) to inhibit growth in assay [2] (MIC).
